Drawing on US7935503B2, “Methods for producing and using polymyxins” (University of Georgia Research Foundation, Inc., priority 2007, dated 2011), this text covers Minimum inhibitory concentration for 2 substances.

Format in all cases: cell-based
Assay [1] concerns Salmonella typhimurium ATCC 29629. Description: Minimum inhibitory concentration (NCCLS dilution method), Salmonella typhimurium [sic]. Conditions: Salmonella typhimurium ATCC 29629 (second line, r16), Gram negative; triplicate, identical values. The method, then: (§1) Bacterial Strains and Culture Conditions. Paenibacillus amylolyticus C27, C25, C26, C28, and C30 were isolated from the hindgut extract of a Tipula abdominalis larva as described in Cook et al. (2007, Appl. Environ. Microbiol., 73:5683-5686), and grown aerobically at 28° C. on tryptic soy agar (TSA) and in tryptic soy both (TSB) or Davis minimal media broth (MM) (Atlas, 1993, Handbook of Microbiological Media, Boca Raton, Fla., CRC Press, Inc.). Escherichia coli ATCC 11303 was grown aerobically at 37° C. on Luria-Bertani agar or in broth. Enterococcus faecalis ATCC 19433, Pseudomonas aeruginosa ATCC 27853, Salmonella typhimurium ATCC 29629, Shigella fexneri ATCC 9199, Bacillus subtilis ATCC 6633, Staphylococcus aureus ATCC 6538, and Streptococcus pyogenes ATCC 19615 were grown aerobically at 37° C. on TSA.
Minimum inhibitory concentrations. Both P. amylolyticus C27 peaks with antibacterial activity from HPLC purification of 500 mL minimal media culture were combined. […]

The subject of assay [2] is Enterococcus faecalis ATCC 19433. Description: Minimum inhibitory concentration (NCCLS dilution method). Conditions: Enterococcus faecalis ATCC 19433, Gram positive; triplicate, identical values. The method, then: as §1
(§2) Minimum inhibitory concentrations. Both P. amylolyticus C27 peaks with antibacterial activity from HPLC purification of 500 mL minimal media culture were combined. For analysis of polymyxin B (Sigma-Aldrich, St. Louis, Mo.), polymyxin E (Sigma-Aldrich, St. Louis, Mo.), and the P. amylolyticus C27 antibacterials, MIC determinations were performed according to the National Committee for Clinical Laboratory Standards (NCCLS) (Table 2) (NCCLS, 2003, Methods for dilution antimicrobial susceptibility tests for bacteria that grow aerobically; approved standard—sixth edition. NCCLS document M7-A6. Wayne, Pa., National Committee for Clinical Laboratory Standards).

Assay [3] deals with Streptococcus pyogenes ATCC 19615. The assay is described as above. The note with it: Streptococcus pyogenes ATCC 19615, Gram positive; triplicate, identical values. The method, then:
as §1, §2

For assay [4], the system named is Escherichia coli ATCC 11303. The assay is described as above. The note with it: Escherichia coli ATCC 11303, Gram negative; triplicate, identical values. The protocol:
as §1, §2

Assay [5] deals with Staphylococcus aureus ATCC 6538. Described as above. Conditions: Staphylococcus aureus ATCC 6538, Gram positive; triplicate, identical values. The protocol:
as §1, §2

The test system of assay [6] is Pseudomonas aeruginosa ATCC 27853. The assay is described as above. The note with it: Pseudomonas aeruginosa ATCC 27853, Gram negative; triplicate, identical values. The protocol:
as §1, §2

Assay [7] has as its system Salmonella typhimurium ATCC 29629. The assay is described as above. The note with it: Salmonella typhimurium ATCC 29629 (first line, r15), Gram negative; triplicate, identical values. The protocol:
as §1, §2

As to polymyxin B, the Minimum inhibitory concentration in assay [1] is 4 µg/mL; in assay [2], over 128 µg/mL; in assay [3] it was 32 µg/mL; in assay [4] it was 2 µg/mL; in assay [5] it was 32 µg/mL; in assay [6] it was 4 µg/mL. The Minimum inhibitory concentration in assay [7] came to 4 µg/mL.
As to polymyxin E, the Minimum inhibitory concentration in assay [1] was 2 µg/mL; in assay [2] it was over 128 µg/mL; in assay [3] it was over 128 µg/mL; in assay [4], 2 µg/mL; in assay [5], 128 µg/mL; in assay [6], 4 µg/mL. Further, in assay [7], the Minimum inhibitory concentration amounted to 1 µg/mL.
